pIC50: −log10 of the molar value.
Legend:
[1] = target: T1, Sheep seminal vesicle (SSV) cyclooxygenase (Ovis aries, UniProt P05979); assay: Procedure I: inhibition of sheep seminal vesicle (SSV) cyclooxygenase; type: biochemical; conditions: SSV cyclooxygenase; for pIC50: read-out: Proc. I IC50; for inhibition at 10 µM: 20 min, @ 10 .quadrature.M, read-out: Proc. I % inhibition
T1 construct: Sheep seminal vesicle (SSV) cyclooxygenase (95% pure); purchased Biomol (Plymouth Meeting, PA); host or cells: sheep seminal vesicle
T1 sequence (P05979 25-600): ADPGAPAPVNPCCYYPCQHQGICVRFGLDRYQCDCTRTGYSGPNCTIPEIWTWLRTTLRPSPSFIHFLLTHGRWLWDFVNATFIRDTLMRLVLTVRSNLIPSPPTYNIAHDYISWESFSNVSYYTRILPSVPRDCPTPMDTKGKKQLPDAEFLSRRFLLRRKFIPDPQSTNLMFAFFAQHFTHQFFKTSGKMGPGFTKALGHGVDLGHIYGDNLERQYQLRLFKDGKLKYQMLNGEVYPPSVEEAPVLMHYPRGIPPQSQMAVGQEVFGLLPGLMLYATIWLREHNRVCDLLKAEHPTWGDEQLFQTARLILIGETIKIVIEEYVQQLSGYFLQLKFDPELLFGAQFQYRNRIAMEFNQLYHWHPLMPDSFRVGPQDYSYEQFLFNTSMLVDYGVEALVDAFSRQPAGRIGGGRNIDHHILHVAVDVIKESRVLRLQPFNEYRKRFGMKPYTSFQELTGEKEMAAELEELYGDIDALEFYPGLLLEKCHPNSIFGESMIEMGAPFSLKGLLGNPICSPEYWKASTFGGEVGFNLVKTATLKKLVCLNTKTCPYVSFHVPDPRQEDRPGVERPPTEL
Protocol: Procedure I was used to determine the ability of the compounds to inhibit cyclooxygenase. […] The enzyme was divided into 200 μL aliquots, snap frozen with liquid N2, and stored at -70° C. until immediately prior to use. […] The tubes were mixed on a vortex shaker, preincubated for 5 min at 37° C. prior to the initiation of the reaction. The reaction was started by the addition of [^14 C]-arachidonic acid (1-^14 C-AA, Amersham, Arlington Heights, Ill.) in 10 μL of methanol. Tubes were again vortexed and incubated in a water bath for 20 minutes after which the tubes were removed and the reaction stopped by acidification with the addition of 1 mL 2M formic acid. Lipophilic products were extracted with 3 mL chloroform and concentrated to dryness under N2. Each pellet was reconstituted with 40 μL of chloroform and spotted on a Whatman Silicon thin-layer chromatography plate and developed in a chromatography tank containing A-9 solvent (11:5:2:1 V:V:VV, ethyl acetate:trimethyl-pentane:acetic acid:double distilled-H2 O). Radioactive cyclooxygenase products (prostaglandin D2, prostaglandin E2, etc.) were measured using a Bioscan System 200 Imaging Scanner. Inhibition of enzyme activity was calculated by comparing the areas under the curve produced in the presence or absence of test compound.

CO [2] = target: T2, CO (Rattus norvegicus, UniProt Q63921); assay: Procedure II: CO activity in broken RBL-1 cells (homogenate supernatant); type: biochemical; conditions: RBL-1 broken cell supernatant; for inhibition at 10 µM: 20 min, @ 10 .quadrature.M, read-out: Proc. II CO % inhibition; for pIC50: read-out: Proc. II CO IC50
T2 construct: the supernatant was saved as the source of enzymes; endogenous in cells; host or cells: RBL-1 (rat basophilic leukemia) cells
T2 sequence (Q63921 27-602): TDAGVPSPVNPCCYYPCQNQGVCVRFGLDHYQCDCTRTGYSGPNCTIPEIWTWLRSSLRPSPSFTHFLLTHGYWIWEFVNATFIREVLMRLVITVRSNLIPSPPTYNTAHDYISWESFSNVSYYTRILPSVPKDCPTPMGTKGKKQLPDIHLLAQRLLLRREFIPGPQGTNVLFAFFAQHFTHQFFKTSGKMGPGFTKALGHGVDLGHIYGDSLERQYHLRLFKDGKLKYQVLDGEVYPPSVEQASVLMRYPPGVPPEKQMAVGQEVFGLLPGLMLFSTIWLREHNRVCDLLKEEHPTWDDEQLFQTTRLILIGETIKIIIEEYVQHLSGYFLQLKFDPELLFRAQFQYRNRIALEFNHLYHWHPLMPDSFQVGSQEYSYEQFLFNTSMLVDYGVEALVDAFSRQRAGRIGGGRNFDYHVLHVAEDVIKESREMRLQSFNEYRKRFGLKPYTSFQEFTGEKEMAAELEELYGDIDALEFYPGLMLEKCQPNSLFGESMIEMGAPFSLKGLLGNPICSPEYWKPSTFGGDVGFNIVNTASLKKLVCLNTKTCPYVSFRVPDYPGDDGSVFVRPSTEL
Protocol: (§1) Procedure II was used to assess LO and CO activity. Rat basophilic leukemia cells (RBL-1; 5×10^7 viable cells/mL) were disrupted by homogenization on ice (four 20 sec bursts) with a Brinkman polytron. […] The homogenate was then centrifuged at 9,220×g for 48 minutes at 4° C. The pellet was discarded and the supernatant was saved as the source of enzymes. The supernatant was pre-incubated for five minutes at 37° C. in the presence of 2 mM of CaCl2 and compound or vehicle (1% DMSO). The conversion of AA into products by CO and LO was initiated by adding 10 μL (50 μCi) of 1-^14 C-AA to each tube and incubated at 37° C. for 20 minutes. The reaction was stopped by adjusting the pH of each sample to 3 to 3.5 with 2M formic acid. Samples were extracted with three volumes of chloroform to isolate the products of 5-LO formed during the reaction. Fractions were dried under nitrogen, then resuspended in 40 μL of chloroform and spotted onto silica gel HL plates. The plates were developed in A-9 solvent. The dried plates were analyzed using a Bioscan Imaging TLC scanner to determine the percentage of radiolabelled AA converted to 5-HETE (LO product) in each sample. The percentage of inhibition was calculated by:
(§2) [1-(5-HETE test)]/5-HETE control×100=% inhibition
(§3) The IC50 was determined using a curve fit in Cricket Graph (Computer Associated), which provided the equation of the regressed line used in the calculation.

5-LO [3] = target: T3, 5-LO (Rattus norvegicus, UniProt P12527); assay: Procedure II: 5-LO activity (5-HETE) in broken RBL-1 cells (homogenate supernatant); type: biochemical; conditions: RBL-1 broken cell supernatant; for pIC50: read-out: Proc. II 5-LO IC50; for inhibition at 10 µM: 20 min, @ 10 .quadrature.M, read-out: Proc. II 5-LO % inhibition
T3 construct: the supernatant was saved as the source of enzymes; endogenous in cells; host or cells: RBL-1 (rat basophilic leukemia) cells
T3 sequence (P12527 1-673): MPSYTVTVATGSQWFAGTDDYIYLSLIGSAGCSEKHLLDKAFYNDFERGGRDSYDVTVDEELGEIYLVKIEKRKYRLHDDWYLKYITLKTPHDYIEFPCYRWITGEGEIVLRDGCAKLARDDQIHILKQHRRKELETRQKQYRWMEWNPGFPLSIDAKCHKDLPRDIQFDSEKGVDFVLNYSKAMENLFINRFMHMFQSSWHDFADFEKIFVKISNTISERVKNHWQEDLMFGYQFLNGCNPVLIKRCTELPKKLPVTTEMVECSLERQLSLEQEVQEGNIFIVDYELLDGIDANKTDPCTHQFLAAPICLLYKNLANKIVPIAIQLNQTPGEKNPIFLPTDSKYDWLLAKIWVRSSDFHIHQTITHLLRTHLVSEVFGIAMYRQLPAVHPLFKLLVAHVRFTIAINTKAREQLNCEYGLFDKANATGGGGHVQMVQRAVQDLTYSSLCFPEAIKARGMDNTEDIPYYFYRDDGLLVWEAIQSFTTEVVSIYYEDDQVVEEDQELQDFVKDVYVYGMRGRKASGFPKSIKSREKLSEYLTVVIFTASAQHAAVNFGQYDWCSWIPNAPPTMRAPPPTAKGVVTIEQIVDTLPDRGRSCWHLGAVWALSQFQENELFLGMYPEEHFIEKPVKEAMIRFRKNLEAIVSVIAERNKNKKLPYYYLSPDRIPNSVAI
Protocol: as §1, §2, §3

CO [4] = target: T2, CO; assay: Procedure III: CO (PgD2) in intact RBL-1 cells; type: cell-based; conditions: calcium ionophore A 23187, read-out: Proc. III CO IC50
Protocol: as §3
(§4) In Procedure III, the ability to inhibit 5-LO and CO in intact RBL-1 cells was also evaluated. […] Cells were collected by centrifugation, washed once in HBSS, and resuspended at a concentration of 1×10^5 cells/mL. Cells were incubated in the presence of vehicle or drug then centrifuged at 800×g for 10 minutes at 4° C. The supernatant was removed by aspiration and the cells were resuspended in 0.5 mL of HBSS. […] The conversion of AA to 5-LO products was initiated by the addition of 10 μL (50 μCi) of 1-^14 C-AA. Products were isolated by acidification and extraction, followed by thin layer chromatography analysis as described above. Radioactive areas corresponding to authentic 5-LO (5-HETE) and CO (PgD2) products were quantitated by the Bioscan 2000 Imaging System and the IC50 was calculated as above.

5-LO [5] = target: T3, 5-LO; assay: Procedure III: 5-LO (5-HETE) in intact RBL-1 cells; type: cell-based; conditions: calcium ionophore A 23187, read-out: Proc. III 5-LO IC50
Protocol: as §3, §4

SMILES	pIC50 [1]	inhibition at 10 µM (CO [2])	pIC50 (5-LO [3])	pIC50 (CO [4])	pIC50 (5-LO [5])	inhibition at 10 µM [1]	inhibition at 10 µM (5-LO [3])	pIC50 (CO [2])
COc1ccc(-n2nc(C#CC(C)N(O)C(N)=O)cc2-c2ccc(Cl)cc2)cc1 (stereo not shown) [Cpd 6]	4.49	0%	8.00	5.21	5.46	–	–	–
COc1ccc(-n2nc(C#CC(C)N(O)C(=O)N3CCOCC3)cc2-c2ccc(Cl)cc2)cc1 (stereo not shown) [Cpd 10]	–	58%	–	5.80	4.92	14%	81%	–
CCC(C#Cc1cc(-c2ccc(Cl)cc2)n(-c2ccc(OC)cc2)n1)N(O)C(N)=O (stereo not shown) [Cpd 11]	–	30%	–	4.15	5.66	0%	91%	–
COc1ccc(-n2nc(C#CC(C(C)C)N(O)C(N)=O)cc2-c2ccc(Cl)cc2)cc1 (stereo not shown) [Cpd 12]	–	0%	–	4.84	5.41	38%	90%	–
COc1ccc(-n2nc(C#CCN(O)C(C)=O)cc2-c2ccc(C)cc2)cc1 [Cpd 13, N-acetyl-N-(1-(1-(4-methoxyphenyl)-5-(4-methylphenyl)pyrazol-3-yl)-1-propyn-3-yl)hydroxylamine]	–	100%	–	7.52	5.14	74%	100%	–
CCC(=O)N(O)CC#Cc1cc(-c2ccc(C)cc2)n(-c2ccc(OC)cc2)n1 [Cpd 14]	–	100%	–	7.22	5.52	79%	100%	–
COc1ccc(-n2nc(C#CCN(O)C(=O)c3ccncc3)cc2-c2ccc(C)cc2)cc1 [Cpd 16]	–	66%	–	5.26	4.58	17%	89%	–
COC(=O)N(O)CC#Cc1cc(-c2ccc(C)cc2)n(-c2ccc(OC)cc2)n1 [Cpd 17, N-methoxycarbonyl-N-(1-(1-(4-methoxyphenyl)-5-(4-methylphenyl)pyrazol-3-yl)-1-propyn-3-yl)hydroxylamine]	–	100%	–	6.55	5.06	74%	100%	–
COc1ccc(-n2nc(C#CC(C)N(O)C(C)=O)cc2-c2ccc(C)cc2)cc1 (stereo not shown) [Cpd 18, N-Acetyl-N-(1-(1-(4-methoxyphenyl)-5-(4-methylphenyl)pyrazol-3-yl)-1-butyn-3-yl)hydroxylamine]	6.51	–	7.10	6.96	4.88	–	–	8.00
COc1ccc(-n2nc(C#CC(C)N(O)C(=O)C(C)C)cc2-c2ccc(C)cc2)cc1 (stereo not shown) [Cpd 20, N-isobutyryl-N-(1-(1-(4-methoxyphenyl) -5(4-methylphenyl)pyrazol-3-yl)-1-butyn-3-yl)hydroxylamine]	6.41	–	7.00	7.05	5.25	–	–	7.40
COc1ccc(-n2nc(C#CC(C)N(O)C(=O)CCl)cc2-c2ccc(C)cc2)cc1 (stereo not shown) [Cpd 21, N-Chloroacetyl-N-(1-(1-(4-methoxyphenyl)-5-(4-methylphenyl)pyrazol-3-yl)-1-butyn-3-yl)hydroxylamine]	5.92	100%	–	6.44	4.63	–	100%	–
CCOC(=O)CCC(=O)N(O)C(C)C#Cc1cc(-c2ccc(C)cc2)n(-c2ccc(OC)cc2)n1 (stereo not shown) [Cpd 22]	5.53	100%	–	5.00	5.00	–	97%	–
COc1ccc(-n2nc(C#CC(C)N(O)C(=O)C(F)(F)F)cc2-c2ccc(C)cc2)cc1 (stereo not shown) [Cpd 23, N-trifluoroacetyl-N-(1-(1-(4-methoxyphenyl)-5-(4-methylphenyl)pyrazol-3-yl)-1-butyn-3-yl)hydroxylamine]	6.38	–	5.78	6.72	4.63	–	–	7.30
CCOC(=O)C(=O)N(O)C(C)C#Cc1cc(-c2ccc(C)cc2)n(-c2ccc(OC)cc2)n1 (stereo not shown) [Cpd 24]	–	50%	–	5.47	5.07	66%	71%	–
